In US8410153B2, “Naphthalene isoxazoline invertebrate pest control agents” (E.I. du Pont de Nemours and Company, priority 2007, dated 2013):

Experiments:
Format in all cases: in vivo
[1] = system: diamondback moth (Plutella xylostella); test: Test A: control of diamondback moth on radish plant, foliar spray; settings: sprayed at 50 ppm, held 6 days
Source text: For evaluating control of diamondback moth (Plutella xylostella) the test unit consisted of a small open container with a 12-14-day-old radish plant inside. This was pre-infested with about 50 neonate larvae that were dispensed into the test unit via corncob grits using a bazooka inoculator. The larvae moved onto the test plant after being dispensed into the test unit.
(§1) Test compounds were formulated using a solution containing 10% acetone, 90% water and 300 ppm X-77™ Spreader Lo-Foam Formula non-ionic surfactant containing alkylarylpolyoxyethylene, free fatty acids, glycols and isopropanol (Loveland Industries, Inc. Greeley, Colo., USA). The formulated compounds were applied in 1 mL of liquid through a SUJ2 atomizer nozzle with ⅛ JJ custom body (Spraying Systems Co. Wheaton, Ill., USA) positioned 1.27 cm (0.5 inches) above the top of each test unit. All experimental compounds in these tests were sprayed at 50 ppm, and the test was replicated three times. After spraying of the formulated test compound, each test unit was allowed to dry for 1 h and then a black, screened cap was placed on top. The test units were held for 6 days in a growth chamber at 25° C. and 70% relative humidity. Plant feeding damage was then visually assessed based on foliage consumed, and a pest mortality rating was also counted and calculated for each test unit.

[2] = system: western flower thrips (Frankliniella occidentalis); test: Test E: control of western flower thrips on Soleil bean plant, contact and/or systemic; settings: held 6 days
Experimental: as §1
For evaluating control of the western flower thrips (Frankliniella occidentalis) through contact and/or systemic means, the test unit consisted of a small open container with a 5-7-day-old Soleil Bean plant inside. Test compounds were formulated and sprayed as described for Test A. All experimental compounds in these tests were sprayed at 250 or 50 ppm as noted, and the test was replicated three times. After spraying, the test units were allowed to dry for 1 h, 22-27 adult thrips were added to each unit and then a black, screened cap was placed on top. The test units were held for 6 days at 25° C. and 45-55% relative humidity. A mortality rating was assessed along with a plant damage rating for each test unit.

[3] = system: fall armyworm (Spodoptera frugiperda); test: Test B: control of fall armyworm on corn (maize) plant, foliar spray; settings: sprayed at 50 ppm
Experimental: as §1
For evaluating control of fall armyworm (Spodoptera frugiperda) the test unit consisted of a small open container with a 4-5-day-old corn (maize) plant inside. This was pre-infested (using a core sampler) with 10-15 1-day-old larvae on a piece of insect diet. Test compounds were formulated and sprayed at 50 ppm as described for Test A and replicated three times. After spraying, the test units were maintained in a growth chamber and then the control efficacy was rated for each test unit as described for Test A.

Structure (SMILES)	levels of control efficacy (20% or less feeding damage or 80% or more mortality) [1]	levels of control efficacy (20% or less feeding damage or 80% or more mortality) ([2]; sprayed at 50 ppm)	levels of control efficacy (20% or less feeding damage or 80% or more mortality) ([2]; sprayed at 250 ppm)	levels of control efficacy (20% or less feeding damage or 80% or more mortality) [3]
CC(C)C(NC(=O)c1ccc(C2=NOC(c3cc(Cl)cc(Cl)c3)(C(F)(F)F)C2)c2ccccc12)C(=O)NCC(F)(F)F (mixture of isomers) [Compound 2]	very good to excellent			
CC(O)CCNC(=O)c1ccc(C2=NOC(c3cccc(C(F)(F)F)c3)(C(F)(F)F)C2)c2ccccc12 (mixture of isomers) [Compound 44]	very good to excellent	very good to excellent	very good to excellent	
CCCNC(=O)C(C)NC(=O)c1ccc(C2=NOC(c3cc(C(F)(F)F)cc(C(F)(F)F)c3)(C(F)(F)F)C2)c2ccccc12 (mixture of isomers) [Compound 84]	very good to excellent	very good to excellent	very good to excellent	
CC(NC(=O)c1ccc(C2=NOC(c3cc(C(F)(F)F)cc(C(F)(F)F)c3)(C(F)(F)F)C2)c2ccccc12)C(=O)NCC(F)(F)F (mixture of isomers) [Compound 94]	very good to excellent			
CNC(=O)C(C)NC(=O)c1ccc(C2=NOC(c3cc(C(F)(F)F)cc(C(F)(F)F)c3)(C(F)(F)F)C2)c2ccccc12 (mixture of isomers) [Compound 95]	very good to excellent			
CC(NC(=O)c1ccc(C2=NOC(c3cc(C(F)(F)F)cc(C(F)(F)F)c3)(C(F)(F)F)C2)c2ccccc12)C(=O)NCC(C)(C)C (mixture of isomers) [Compound 97]		very good to excellent		
CC(NC(=O)CNC(=O)c1ccc(C2=NOC(c3cc(C(F)(F)F)cc(C(F)(F)F)c3)(C(F)(F)F)C2)c2ccccc12)C(F)(F)F (mixture of isomers) [Compound 104]	very good to excellent			
CC(NC(=O)c1ccc(C2=NOC(c3cc(Cl)cc(C(F)(F)F)c3)(C(F)(F)F)C2)c2ccccc12)C(=O)NCC(F)(F)F (mixture of isomers) [Compound 106]	very good to excellent	very good to excellent	very good to excellent	
CC(C)NC(=O)C(C)NC(=O)c1ccc(C2=NOC(c3cc(Cl)cc(C(F)(F)F)c3)(C(F)(F)F)C2)c2ccccc12 (mixture of isomers) [Compound 107]	very good to excellent	very good to excellent	very good to excellent	
CCCNC(=O)C(C)NC(=O)c1ccc(C2=NOC(c3cc(Cl)cc(C(F)(F)F)c3)(C(F)(F)F)C2)c2ccccc12 (mixture of isomers) [Compound 108]	very good to excellent	very good to excellent	very good to excellent	
CNC(=O)C(C)NC(=O)c1ccc(C2=NOC(c3cc(Cl)cc(C(F)(F)F)c3)(C(F)(F)F)C2)c2ccccc12 (mixture of isomers) [Compound 109]	very good to excellent	very good to excellent	very good to excellent	
CCNC(=O)C(C)NC(=O)c1ccc(C2=NOC(c3cc(Cl)cc(C(F)(F)F)c3)(C(F)(F)F)C2)c2ccccc12 (mixture of isomers) [Compound 110]	very good to excellent	very good to excellent	very good to excellent	
CC(C)CNC(=O)C(C)NC(=O)c1ccc(C2=NOC(c3cc(Cl)cc(C(F)(F)F)c3)(C(F)(F)F)C2)c2ccccc12 (mixture of isomers) [Compound 111]	very good to excellent	very good to excellent	very good to excellent	
CC(NC(=O)c1ccc(C2=NOC(c3cc(Cl)cc(C(F)(F)F)c3)(C(F)(F)F)C2)c2ccccc12)C(=O)NCC(C)(C)C (mixture of isomers) [Compound 112]	very good to excellent		very good to excellent	
CNC(=O)C(C)NC(=O)c1ccc(C2=NOC(c3cc(Cl)cc(C(F)(F)F)c3)(C(F)(F)F)C2)c2ccccc12 (mixture of isomers) [Compound 125]				very good to excellent
CCNC(=O)C(C)NC(=O)c1ccc(C2=NOC(c3cc(Cl)cc(C(F)(F)F)c3)(C(F)(F)F)C2)c2ccccc12 (mixture of isomers) [Compound 126]				very good to excellent
CC(NC(=O)c1ccc(C2=NOC(c3cc(Cl)cc(C(F)(F)F)c3)(C(F)(F)F)C2)c2ccccc12)C(=O)NCC(C)(C)C (mixture of isomers) [Compound 131]	very good to excellent		very good to excellent	
CC(C)(CO)NC(=O)c1ccc(C2=NOC(c3cc(Cl)cc(Cl)c3)(C(F)(F)F)C2)c2ccccc12 (racemic) [Compound 32]	very good to excellent	very good to excellent	very good to excellent	
O=C(NCCCO)c1ccc(C2=NOC(c3cccc(C(F)(F)F)c3)(C(F)(F)F)C2)c2ccccc12 (racemic) [Compound 42]	very good to excellent	very good to excellent	very good to excellent	
CC(C)(C)SCCNC(=O)c1ccc(C2=NOC(c3cccc(C(F)(F)F)c3)(C(F)(F)F)C2)c2ccccc12 (racemic) [Compound 57]	very good to excellent			
O=C(CCNC(=O)c1ccc(C2=NOC(c3cc(Cl)cc(Cl)c3)(C(F)(F)F)C2)c2ccccc12)NCC(F)(F)F (stereo not drawn) [Compound 9]	very good to excellent			
CC(C)(CO)CNC(=O)c1ccc(C2=NOC(c3cccc(C(F)(F)F)c3)(C(F)(F)F)C2)c2ccccc12 (stereo not drawn) [Compound 61]	very good to excellent			
O=C(CNC(=O)c1ccc(C2=NOC(c3cc(F)cc(F)c3)(C(F)(F)F)C2)c2ccccc12)NCC(F)(F)F (stereo not drawn) [Compound 73]	very good to excellent		very good to excellent	
O=C(CNC(=O)c1ccc(C2=NOC(c3cccc(F)c3)(C(F)(F)F)C2)c2ccccc12)NCC(F)(F)F (stereo not drawn) [Compound 74]	very good to excellent			
CC(C)NC(=O)CNC(=O)c1ccc(C2=NOC(c3cc(F)cc(F)c3)(C(F)(F)F)C2)c2ccccc12 (stereo not drawn) [Compound 75]	very good to excellent			
CC(C)NC(=O)CNC(=O)c1ccc(C2=NOC(c3cccc(F)c3)(C(F)(F)F)C2)c2ccccc12 (stereo not drawn) [Compound 76]	very good to excellent			
CSCCNC(=O)c1ccc(C2=NOC(c3cc(F)cc(F)c3)(C(F)(F)F)C2)c2ccccc12 (stereo not drawn) [Compound 77]	very good to excellent		very good to excellent	
CSCCNC(=O)c1ccc(C2=NOC(c3cccc(F)c3)(C(F)(F)F)C2)c2ccccc12 (stereo not drawn) [Compound 78]	very good to excellent			
CS(=O)(=O)CCNC(=O)c1ccc(C2=NOC(c3cc(F)cc(F)c3)(C(F)(F)F)C2)c2ccccc12 (stereo not drawn) [Compound 80]	very good to excellent		very good to excellent	
